According to ChEMBL document CHEMBL1201862, “PubChem BioAssay data set” (2004):
Calls of active or inactive are those of the source.

Legend:
[1] = target: T1, DNA repair protein RAD52 homolog (Homo sapiens, UniProt P43351); type: functional, biochemical
T1 sequence (P43351 whole entry): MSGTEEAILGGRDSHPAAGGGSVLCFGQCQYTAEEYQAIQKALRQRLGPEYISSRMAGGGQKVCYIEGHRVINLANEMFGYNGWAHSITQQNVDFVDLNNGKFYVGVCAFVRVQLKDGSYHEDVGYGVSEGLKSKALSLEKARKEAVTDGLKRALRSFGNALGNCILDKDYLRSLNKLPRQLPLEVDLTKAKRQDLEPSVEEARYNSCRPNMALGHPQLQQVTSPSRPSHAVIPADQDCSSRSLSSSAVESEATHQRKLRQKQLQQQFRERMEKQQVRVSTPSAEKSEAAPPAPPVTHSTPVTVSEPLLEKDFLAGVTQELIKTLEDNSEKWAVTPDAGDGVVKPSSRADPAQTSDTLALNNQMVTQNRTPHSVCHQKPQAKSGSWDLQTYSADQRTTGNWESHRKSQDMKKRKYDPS

[2] = HepG2 cell cytotoxicity, dose response, cytotoxicity control, ATP luminescence, cherry-pick, set 6 (AID 1053125); type: functional, cell-based
Caspase-3 [3] = target: T2, Caspase-3 (Homo sapiens, UniProt P42574); type: functional;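 further: Dose-response selectivity test against caspase-3 for candidate inhibitors of sentrin-specific proteases (SENPs)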
T2 sequence (P42574 whole entry): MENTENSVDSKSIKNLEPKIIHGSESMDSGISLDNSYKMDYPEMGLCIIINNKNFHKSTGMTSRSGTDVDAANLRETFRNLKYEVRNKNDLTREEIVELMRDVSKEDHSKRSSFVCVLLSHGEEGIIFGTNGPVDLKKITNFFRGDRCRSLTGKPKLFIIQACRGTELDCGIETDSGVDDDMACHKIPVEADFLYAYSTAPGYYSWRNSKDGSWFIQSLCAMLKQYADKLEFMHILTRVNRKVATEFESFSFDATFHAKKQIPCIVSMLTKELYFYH

[4] = target: T3, Sentrin-specific protease 7 (Homo sapiens, UniProt Q9BQF6); type: functional;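 further: Luminescence-based dose-response confirmation of ultra-high-throughput screening hits, measuring inhibition of SENP7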
T3 sequence (Q9BQF6 whole entry): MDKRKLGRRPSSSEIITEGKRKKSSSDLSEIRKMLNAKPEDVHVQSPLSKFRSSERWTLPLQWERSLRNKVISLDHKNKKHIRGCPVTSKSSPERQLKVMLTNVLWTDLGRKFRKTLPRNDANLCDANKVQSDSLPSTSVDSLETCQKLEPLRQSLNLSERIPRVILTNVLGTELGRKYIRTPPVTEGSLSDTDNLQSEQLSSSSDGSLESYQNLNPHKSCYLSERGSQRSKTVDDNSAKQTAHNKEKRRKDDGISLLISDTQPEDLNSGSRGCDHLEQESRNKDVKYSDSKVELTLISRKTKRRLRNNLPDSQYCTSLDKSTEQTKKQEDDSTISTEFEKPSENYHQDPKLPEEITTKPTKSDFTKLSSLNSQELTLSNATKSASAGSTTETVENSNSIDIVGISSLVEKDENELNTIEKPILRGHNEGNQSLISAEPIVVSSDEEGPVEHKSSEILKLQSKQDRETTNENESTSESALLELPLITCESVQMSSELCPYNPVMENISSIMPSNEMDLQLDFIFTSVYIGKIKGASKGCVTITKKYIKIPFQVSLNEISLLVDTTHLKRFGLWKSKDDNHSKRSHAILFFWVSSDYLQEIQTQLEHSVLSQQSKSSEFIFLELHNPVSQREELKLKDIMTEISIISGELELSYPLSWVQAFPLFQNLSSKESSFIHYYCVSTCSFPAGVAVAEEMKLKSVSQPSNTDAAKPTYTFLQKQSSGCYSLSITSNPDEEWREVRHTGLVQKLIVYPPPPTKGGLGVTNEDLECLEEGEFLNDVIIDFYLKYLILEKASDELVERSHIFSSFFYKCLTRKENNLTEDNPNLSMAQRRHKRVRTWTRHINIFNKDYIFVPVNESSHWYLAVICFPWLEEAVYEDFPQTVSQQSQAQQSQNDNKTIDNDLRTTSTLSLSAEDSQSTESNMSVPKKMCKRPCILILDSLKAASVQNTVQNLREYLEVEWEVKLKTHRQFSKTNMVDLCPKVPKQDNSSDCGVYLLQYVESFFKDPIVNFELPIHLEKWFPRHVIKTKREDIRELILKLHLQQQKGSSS

[5] = target: T4, Sentrin-specific protease 6 (Homo sapiens, UniProt Q9GZR1); type: functional;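 further: Luminescence-based dose-response confirmatory assay of SENP6 inhibition, following up an ultra-high-throughput screen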
T4 sequence (Q9GZR1 whole entry): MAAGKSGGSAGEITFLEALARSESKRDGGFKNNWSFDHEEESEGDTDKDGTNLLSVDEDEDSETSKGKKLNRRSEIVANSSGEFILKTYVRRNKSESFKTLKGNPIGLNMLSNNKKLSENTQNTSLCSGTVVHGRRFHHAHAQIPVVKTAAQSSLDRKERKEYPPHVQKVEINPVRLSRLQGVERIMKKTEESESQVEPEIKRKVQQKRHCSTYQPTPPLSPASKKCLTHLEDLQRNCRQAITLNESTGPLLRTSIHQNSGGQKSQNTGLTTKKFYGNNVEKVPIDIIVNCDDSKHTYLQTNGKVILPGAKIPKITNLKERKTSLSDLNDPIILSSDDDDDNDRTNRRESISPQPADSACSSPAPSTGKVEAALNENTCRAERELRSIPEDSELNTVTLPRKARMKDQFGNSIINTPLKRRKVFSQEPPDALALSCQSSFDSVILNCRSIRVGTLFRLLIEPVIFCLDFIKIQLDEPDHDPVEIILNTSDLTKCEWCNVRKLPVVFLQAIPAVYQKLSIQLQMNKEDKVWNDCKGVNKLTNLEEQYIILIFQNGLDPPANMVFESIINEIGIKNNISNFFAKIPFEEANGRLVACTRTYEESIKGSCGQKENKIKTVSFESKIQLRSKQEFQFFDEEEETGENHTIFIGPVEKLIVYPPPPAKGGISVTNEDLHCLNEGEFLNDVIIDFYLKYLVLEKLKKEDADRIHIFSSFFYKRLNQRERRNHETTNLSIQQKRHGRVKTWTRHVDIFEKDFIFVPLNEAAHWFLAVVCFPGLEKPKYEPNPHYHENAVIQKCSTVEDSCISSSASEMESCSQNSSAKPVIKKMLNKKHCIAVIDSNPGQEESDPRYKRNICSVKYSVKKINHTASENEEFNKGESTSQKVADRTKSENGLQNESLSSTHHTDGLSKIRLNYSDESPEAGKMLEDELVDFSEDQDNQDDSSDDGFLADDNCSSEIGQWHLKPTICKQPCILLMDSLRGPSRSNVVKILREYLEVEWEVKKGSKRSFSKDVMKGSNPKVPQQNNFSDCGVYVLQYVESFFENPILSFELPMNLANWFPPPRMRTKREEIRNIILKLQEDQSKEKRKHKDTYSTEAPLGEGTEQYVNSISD

[6] = target: T5, Sentrin-specific protease 8 (Homo sapiens, UniProt Q96LD8); type: functional;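 further: luminescence read-out of SENP8 inhibition, dose-response confirmation following an ultra-high-throughput screen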
T5 sequence (Q96LD8 whole entry): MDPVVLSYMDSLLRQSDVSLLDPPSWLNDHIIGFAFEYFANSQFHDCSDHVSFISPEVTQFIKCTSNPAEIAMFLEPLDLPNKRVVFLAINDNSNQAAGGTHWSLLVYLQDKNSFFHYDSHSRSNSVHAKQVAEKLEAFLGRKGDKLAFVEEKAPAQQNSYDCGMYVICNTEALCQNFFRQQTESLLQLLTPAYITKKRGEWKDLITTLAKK

H9c2 = assay: cells; type: functional, cell-based; conditions: Rattus norvegicus, H9c2, Myocardium;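 further: confirmatory concentration-response retest of ultra-high-throughput screening hits for modulation of myocardial damage; cell death induced by hydrogen peroxide oxidative stress; compound pretreatment for 60 min then peroxide exposure for 2 h; potency is for protecting the cells against peroxide damage rather than for killing them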
[7] = target: Mitochondrial peptide methionine sulfoxide reductase (Bos taurus, UniProt P54149); assay: Absorbance-based biochemical high throughput dose response assay for activators of Methionine sulfoxide reductase A (MsrA).; type: functional
Caspase-6 = target: T6, Caspase-6 (Homo sapiens, UniProt P55212); assay: human caspase-6 inhibitors, dose response, biochemical, VEID-R110 fluorescence, cherry-pick (AID 720632)
T6 sequence (P55212 whole entry): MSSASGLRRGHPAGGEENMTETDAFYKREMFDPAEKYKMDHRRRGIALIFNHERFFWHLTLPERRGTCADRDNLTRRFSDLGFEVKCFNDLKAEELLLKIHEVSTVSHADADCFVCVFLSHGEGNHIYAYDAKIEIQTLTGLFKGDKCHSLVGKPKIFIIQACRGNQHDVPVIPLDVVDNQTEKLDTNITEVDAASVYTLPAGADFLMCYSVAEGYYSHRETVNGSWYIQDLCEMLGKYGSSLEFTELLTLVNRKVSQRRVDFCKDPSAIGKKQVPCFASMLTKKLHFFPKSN

Caspase-9 = Caspase-9 (Homo sapiens, UniProt P55211); assay: caspase-9 enzyme inhibition, dose response, selectivity assay for caspase-6 inhibitor project, biochemical, fluorescence, plate reader, cherry-picked samples (AID 743293)
[8] = target: Tyrosyl-DNA phosphodiesterase 2 (Homo sapiens, UniProt O95551); assay: human TDP2 enzyme inhibitors, dose response, biochemical, epi absorbance, IC50 (AID 743297)
Caspase-7 = Caspase-7 (Homo sapiens, UniProt P55210); assay: human caspase-7 inhibitors, dose response, selectivity assay for caspase-6 inhibitor project, biochemical, DEVD-R110 fluorescence, cherry-pick (AID 743295)
Caspase-8 = Caspase-8 (Homo sapiens, UniProt Q14790); assay: caspase-8 inhibition counter-screen, dose response, selectivity assay for caspase-6 inhibitor project, biochemical, Z-IETD-R110 fluorescence, cherry-picked samples (AID 743294)
Caspase-3 [9] = target: T2, Caspase-3; assay: caspase-3 enzyme inhibitors, selectivity check, dose response, selectivity assay for caspase-6 allosteric inhibitor project, biochemical, fluorescence, cherry-picked samples (AID 743291)
[10] = A375 melanoma cell viability loss, dose response, counter-screen for MITF inhibitor project, CellTiter-Glo luminescence, dry powder, set 4 (AID 624364); type: functional, cell-based; conditions: A-375;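 further: A375 melanoma cells are MITF independent so this is a counter screen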
[11] = A375 melanoma cell cytotoxicity, dose response, counter-screen for MITF inhibitor project, CellTiter-Glo luminescence, dry powder, set 2 (AID 624489); type: functional, cell-based; conditions: A-375;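 further: actives are compounds lowering A375 viability meaning general cytotoxicity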
[12] = target: T7, Methionyl-tRNA synthetase, putative (Trypanosoma brucei brucei, UniProt Q38C91); type: functional, Trypanosoma brucei brucei strain 927/4 GUTat10.1
T7 sequence (Q38C91 whole entry): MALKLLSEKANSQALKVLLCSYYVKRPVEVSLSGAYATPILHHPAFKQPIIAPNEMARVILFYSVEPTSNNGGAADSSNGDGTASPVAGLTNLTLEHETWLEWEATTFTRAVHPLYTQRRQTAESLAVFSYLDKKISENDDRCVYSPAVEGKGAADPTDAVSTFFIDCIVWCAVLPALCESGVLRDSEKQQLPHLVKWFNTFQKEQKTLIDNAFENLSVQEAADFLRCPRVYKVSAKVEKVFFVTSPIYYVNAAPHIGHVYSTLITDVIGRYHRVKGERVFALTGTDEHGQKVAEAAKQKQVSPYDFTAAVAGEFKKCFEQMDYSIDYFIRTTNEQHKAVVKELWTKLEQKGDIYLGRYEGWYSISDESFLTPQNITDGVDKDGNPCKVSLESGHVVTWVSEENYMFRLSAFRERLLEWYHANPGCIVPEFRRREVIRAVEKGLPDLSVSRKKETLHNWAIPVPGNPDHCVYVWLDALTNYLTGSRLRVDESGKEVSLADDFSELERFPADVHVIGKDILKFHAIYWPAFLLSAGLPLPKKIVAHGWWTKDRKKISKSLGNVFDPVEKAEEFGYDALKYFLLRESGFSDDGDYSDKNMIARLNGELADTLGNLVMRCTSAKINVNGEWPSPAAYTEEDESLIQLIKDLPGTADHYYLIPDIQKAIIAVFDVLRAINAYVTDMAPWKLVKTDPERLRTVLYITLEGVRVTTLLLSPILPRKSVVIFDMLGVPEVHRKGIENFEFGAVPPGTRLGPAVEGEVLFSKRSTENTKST

[13] = Counterscreen for inhibitors of Trypanosoma brucei methionyl tRNA synthetase (MetRS): Luminescence-based cell-based high throughput dose response assay to identify compounds that are cytotoxic to Jurkat human T lymphocyte cells.; type: functional
[14] = target: T7, Methionyl-tRNA synthetase, putative; type: functional, Trypanosoma brucei brucei strain 927/4 GUTat10.1; remark: listed apart in the source
[15] = Late stage counterscreen for inhibitors of Trypanosoma brucei methionyl tRNA synthetase (MetRS): Luminescence-based cell-based high throughput dose response assay to identify compounds that are cytotoxic to Jurkat human T lymphocyte cells.; type: functional

Mitochondrial peptide methionine sulfoxide reductase, sequence (P54149 whole entry): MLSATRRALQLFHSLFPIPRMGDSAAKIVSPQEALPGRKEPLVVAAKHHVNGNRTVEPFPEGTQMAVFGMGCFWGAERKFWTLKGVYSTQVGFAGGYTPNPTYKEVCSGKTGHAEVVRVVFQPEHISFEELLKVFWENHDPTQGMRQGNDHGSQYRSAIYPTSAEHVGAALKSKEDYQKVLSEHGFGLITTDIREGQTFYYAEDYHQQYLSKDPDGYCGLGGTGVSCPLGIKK
Caspase-8, sequence (Q14790 217-374 limits assumed): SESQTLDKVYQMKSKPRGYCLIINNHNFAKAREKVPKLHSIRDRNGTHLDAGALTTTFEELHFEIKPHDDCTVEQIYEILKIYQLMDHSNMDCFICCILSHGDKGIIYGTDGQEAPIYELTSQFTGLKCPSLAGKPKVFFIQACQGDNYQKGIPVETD
Caspase-8, sequence (Q14790 385-479 limits assumed): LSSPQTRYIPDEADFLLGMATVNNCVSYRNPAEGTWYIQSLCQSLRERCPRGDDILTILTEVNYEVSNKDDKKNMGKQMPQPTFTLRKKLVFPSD
Tyrosyl-DNA phosphodiesterase 2, sequence (O95551 whole entry): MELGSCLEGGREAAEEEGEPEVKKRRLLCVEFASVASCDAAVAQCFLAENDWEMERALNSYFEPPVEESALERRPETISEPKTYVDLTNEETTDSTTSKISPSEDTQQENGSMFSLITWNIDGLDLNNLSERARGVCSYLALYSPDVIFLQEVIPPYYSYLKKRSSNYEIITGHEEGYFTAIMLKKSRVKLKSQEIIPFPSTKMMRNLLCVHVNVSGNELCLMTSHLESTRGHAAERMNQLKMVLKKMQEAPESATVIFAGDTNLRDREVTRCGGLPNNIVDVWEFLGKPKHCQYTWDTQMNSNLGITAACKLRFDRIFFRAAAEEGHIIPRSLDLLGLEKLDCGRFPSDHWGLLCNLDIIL
Caspase-9, sequence (P55211 1-315 limits assumed): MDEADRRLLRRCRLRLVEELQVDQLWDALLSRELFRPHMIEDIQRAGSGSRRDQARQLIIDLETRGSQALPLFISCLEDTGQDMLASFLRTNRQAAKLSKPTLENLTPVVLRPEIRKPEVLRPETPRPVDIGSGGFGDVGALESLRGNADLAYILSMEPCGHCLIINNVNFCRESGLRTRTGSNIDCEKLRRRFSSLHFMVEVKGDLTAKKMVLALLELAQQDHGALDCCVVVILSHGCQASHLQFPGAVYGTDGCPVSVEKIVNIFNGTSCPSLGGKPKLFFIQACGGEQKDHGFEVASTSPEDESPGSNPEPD
Caspase-9, sequence (P55211 331-416 limits assumed): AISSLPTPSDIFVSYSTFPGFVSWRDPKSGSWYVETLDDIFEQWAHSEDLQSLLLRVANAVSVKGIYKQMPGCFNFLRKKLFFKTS
Caspase-7, sequence (P55210 24-198 limits assumed): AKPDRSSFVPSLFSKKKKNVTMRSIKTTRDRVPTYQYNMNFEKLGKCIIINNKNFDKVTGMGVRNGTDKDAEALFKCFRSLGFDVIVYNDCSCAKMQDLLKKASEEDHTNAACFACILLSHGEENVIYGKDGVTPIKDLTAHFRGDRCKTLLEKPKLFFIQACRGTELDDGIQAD
Caspase-7, sequence (P55210 207-303 limits assumed): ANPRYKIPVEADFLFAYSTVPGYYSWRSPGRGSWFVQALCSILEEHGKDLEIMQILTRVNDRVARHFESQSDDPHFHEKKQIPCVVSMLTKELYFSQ

Compound: Cc1cccn2c(=O)c3cc(C(N)=S)c(=N)n(CCCN4CCOCC4)c3nc12
- AC50 [1]: 3.43 µM (active)
- AC50 [2]: > 52 µM (inactive)
- AC50 (cells): 5.15 µM (active)

Compound: O=C(OCc1nnc(-c2ccccc2)o1)c1ccc([N+](=O)[O-])s1
- IC50 (Caspase-3 [3]): 14.3 µM (active)
- IC50 [4]: 10.1 µM (active)
- IC50 [5]: 6.79 µM (active)
- IC50 [6]: 5.56 µM (active)
- IC50 (H9c2): > 79 µM (inactive)
- EC50 [7]: 33.1 µM (inactive)
- AC50 (Caspase-6): 3.66 µM (active)
- AC50 (Caspase-9): 18.4 µM (active)
- IC50 [8]: 24.2 µM (inactive)
- AC50 (Caspase-7): 14.6 µM (active)
- AC50 (Caspase-8): 23.3 µM (active)
- AC50 (Caspase-3 [9]): 6.9 µM (active)

Compound: O=C1C(NS(=O)(=O)c2cccs2)=C(N2CCOCC2)C(=O)c2ccccc21
- AC50 [10]: > 70 µM (inactive)
- AC50 [11]: > 70 µM (inactive)

Compound: CN1CC(=O)N2C(c3cccc([N+](=O)[O-])c3)c3[nH]c4ccccc4c3C[C@H]2C1=O (stereo partly specified)
- IC50 [12]: 0.798 µM (active)
- IC50 [13]: 83.3 µM (inactive)
- IC50 [14]: 0.393 µM (active)
- IC50 [15]: > 83.3 µM (inactive)
